The values that follow are results of earlier work, collected in US12484617B2, “Oral pouch product” (Altria Client Services LLC, priority 2022, dated 2025).

For the series the following is noted: free base (non-protonated).

Regarding `CN1CCCC1c1cccnc1` (stereo not shown) [Free-base nicotine, 3-(1-methyl-2-pyrrolidinyl)pyridine], the pKa value result was “about 8”.
